In US10167262B2, “Herbicidal substituted 3-arylpyrazoles” (FMC CORPORATION, priority 2014, dated 2019):

Legend:
Assay in all cases: Test E pre-/postemergence greenhouse test, plant response rating 0-100
Assay type in all cases: in vivo
[1] = tested on: Brazilian crabgrass (Digitaria horizontalis); details: Postemergence, scale 0 to 100
From the text: (§1) Seeds of plant species selected from corn (Zea mays), soybean (Glycine max), velvetleaf (Abutilon theophrasti), lambsquarters (Chenopodium album), wild poinsettia (Euphorbia heterophylla), palmer pigweed (Amaranthus palmeri), waterhemp (common waterhemp, Amaranthus rudis), surinam grass (Brachiaria decumbens), large (Lg) crabgrass (Digitaria sanguinalis), Brazilian crabgrass (Digitaria horizontalis), fall panicum (Panicum dichotomiflorum), giant foxtail (Setaria faberii), green foxtail (Setaria viridis), goosegrass (Eleusine indica), johnsongrass (Sorghum halepense), ragweed (common ragweed, Ambrosia elatior), barnyardgrass (Echinochloa crus-galli), sandbur (southern sandbur, Cenchrus echinatus), arrowleaf sida (Sida rhombifolia), Italian ryegrass (Lolium multiflorum), dayflower (Virginia (VA) dayflower, Commelina virginica), field bindweed (Convolvulus arvensis), morningglory (Ipomoea coccinea), nightshade (eastern black nightshade, Solanum ptycanthum), kochia (Kochia scoparia), yellow nutsedge (Cyperus esculentus), smartweed (ladysthumb smartweed, Polygonum persicaria), cocklebur (common cocklebur, Xanthium strumarium), and hairy beggarticks (Bidens pilosa), were planted into a silt loam soil and treated preemergence with test chemicals formulated in a non-phytotoxic solvent mixture which included a surfactant.
(§2) At the same time, plants from these crop and weed species and also waterhemp_RES1, (ALS & Triazine resistant common waterhemp, Amaranthus rudis), and waterhemp_RES2, (ALS & HPPD resistant common waterhemp, Amaranthus rudis) were planted in pots containing Redi-Earth® planting medium (Scotts Company, 14111 Scottslawn Road, Marysville, Ohio 43041) comprising spaghnum peat moss, vermiculite, wetting agent and starter nutrients were treated with postemergence applications of test chemicals formulated in the same manner. Plants ranged in height from 2 to 18 cm for postemergence treatments (1- to 4-leaf stage).
(§3) Treated plants and controls were maintained in a greenhouse for 14 to 21 days, after which time all species were compared to controls and visually evaluated. Plant response ratings, summarized in Table E, are based on a scale of 0 to 100 where 0 is no effect and 100 is complete control. A dash (-) response means no test result.

[2] = tested on: arrowleaf sida (Sida rhombifolia); details: Postemergence
From the text: as §1, §2, §3

[3] = tested on: barnyardgrass (Echinochloa crus-galli); details: Postemergence, scale 0 to 100
From the text: as §1, §2, §3

[4] = tested on: dayflower (Virginia (VA) dayflower, Commelina virginica); details: Postemergence, scale 0 to 100
From the text: as §1, §2, §3

[5] = tested on: fall panicum (Panicum dichotomiflorum); details: Postemergence, scale 0 to 100
From the text: as §1, §2, §3

[6] = tested on: palmer pigweed (Amaranthus palmeri); details: Postemergence, scale 0 to 100
From the text: as §1, §2, §3

[7] = tested on: sandbur (southern sandbur, Cenchrus echinatus); details: Postemergence, scale 0 to 100
From the text: as §1, §2, §3

[8] = tested on: waterhemp (common waterhemp, Amaranthus rudis); details: Postemergence, scale 0 to 100
From the text: as §1, §2, §3

[9] = tested on: wild poinsettia (Euphorbia heterophylla); details: Postemergence, scale 0 to 100
From the text: as §1, §2, §3

What does the source list for `CCn1cc(C(=O)c2cccs2)c(-c2cc(Cl)cc(Cl)c2)n1` [Compound 18]?
Plant response rating, Crabgrass, Brazil ([1]; 31 g ai/ha): 0; Plant response rating, Crabgrass, Brazil ([1]; 62 g ai/ha): 5; Plant response rating, Crabgrass, Brazil ([1]; 125 g ai/ha): 15; Plant response rating, Crabgrass, Brazil ([1]; 250 g ai/ha): 20; Plant response rating, Crabgrass, Brazil ([1]; 500 g ai/ha): 20; Plant response rating, Arrowleaf Sida ([2]; 31 g ai/ha, scale 0 to 100): 60; Plant response rating, Arrowleaf Sida ([2]; 62 g ai/ha, scale 0 to 100): 70; Plant response rating, Arrowleaf Sida ([2]; 125 g ai/ha, scale 0 to 100): 80; Plant response rating, Arrowleaf Sida ([2]; 250 g ai/ha, scale 0 to 100): 80; Plant response rating, Arrowleaf Sida ([2]; 500 g ai/ha, scale 0 to 100 (0 no effect, 100 complete control)): 85; Plant response rating, Barnyardgrass ([3]; 31 g ai/ha): 0; Plant response rating, Barnyardgrass ([3]; 62 g ai/ha): 10; Plant response rating, Barnyardgrass ([3]; 125 g ai/ha): 20; Plant response rating, Barnyardgrass ([3]; 250 g ai/ha): 25; Plant response rating, Barnyardgrass ([3]; 500 g ai/ha): 25; Plant response rating, Dayflower, VA ([4]; 31 g ai/ha): 0; Plant response rating, Dayflower, VA ([4]; 62 g ai/ha): 0; Plant response rating, Dayflower, VA ([4]; 125 g ai/ha): 0; Plant response rating, Dayflower, VA ([4]; 250 g ai/ha): 0; Plant response rating, Dayflower, VA ([4]; 500 g ai/ha): 5; Plant response rating, Panicum, Fall ([5]; 31 g ai/ha): 0; Plant response rating, Panicum, Fall ([5]; 62 g ai/ha): 0; Plant response rating, Panicum, Fall ([5]; 125 g ai/ha): 0; Plant response rating, Panicum, Fall ([5]; 250 g ai/ha): 0; Plant response rating, Panicum, Fall ([5]; 500 g ai/ha): 10; Plant response rating, Pigweed, Palmer ([6]; 31 g ai/ha): 90; Plant response rating, Pigweed, Palmer ([6]; 62 g ai/ha): 90; Plant response rating, Pigweed, Palmer ([6]; 125 g ai/ha): 90; Plant response rating, Pigweed, Palmer ([6]; 250 g ai/ha): 98; Plant response rating, Pigweed, Palmer ([6]; 500 g ai/ha): 98; Plant response rating, Sandbur ([7]; 31 g ai/ha): 0; Plant response rating, Sandbur ([7]; 62 g ai/ha): 0; Plant response rating, Sandbur ([7]; 125 g ai/ha): 0; Plant response rating, Sandbur ([7]; 250 g ai/ha): 15; Plant response rating, Sandbur ([7]; 500 g ai/ha): 20; Plant response rating, Waterhemp ([8]; 31 g ai/ha): 50; Plant response rating, Waterhemp ([8]; 62 g ai/ha): 75; Plant response rating, Waterhemp ([8]; 125 g ai/ha): 85; Plant response rating, Waterhemp ([8]; 250 g ai/ha): 90; Plant response rating, Waterhemp ([8]; 500 g ai/ha): 95; Plant response rating, Poinsettia, Wild ([9]; 31 g ai/ha): 5; Plant response rating, Poinsettia, Wild ([9]; 62 g ai/ha): 20; Plant response rating, Poinsettia, Wild ([9]; 125 g ai/ha): 30; Plant response rating, Poinsettia, Wild ([9]; 250 g ai/ha): 30; Plant response rating, Poinsettia, Wild ([9]; 500 g ai/ha): 40

For `C=CCn1cc(C(=O)c2ccccc2)c(-c2cc(Cl)cc(Cl)c2)n1` [Compound 60], which “Plant response rating, Crabgrass, Brazil” value ([1]; 16 g ai/ha) is on record?
The value was 0.

And the “Plant response rating, Crabgrass, Brazil” value ([1]; 31 g ai/ha)?
Its value is 0.

What about the “Plant response rating, Crabgrass, Brazil” value ([1]; 62 g ai/ha) of the same molecule?
Its value is 0.

And the “Plant response rating, Crabgrass, Brazil” value ([1]; 125 g ai/ha)?
Its value is 0.

And the “Plant response rating, Crabgrass, Brazil” value ([1]; 250 g ai/ha)?
The value was 0.

And the “Plant response rating, Arrowleaf Sida” value ([2]; 16 g ai/ha, scale 0 to 100)?
Its value is 25.

And the “Plant response rating, Arrowleaf Sida” value ([2]; 31 g ai/ha, scale 0 to 100)?
Its value is 35.

And the “Plant response rating, Arrowleaf Sida” value ([2]; 62 g ai/ha, scale 0 to 100)?
The value was 35.

What about the “Plant response rating, Arrowleaf Sida” value ([2]; 125 g ai/ha, scale 0 to 100) of the same molecule?
The value was 45.

And the “Plant response rating, Arrowleaf Sida” value ([2]; 250 g ai/ha, scale 0 to 100)?
Its value is 45.

What about the “Plant response rating, Barnyardgrass” value ([3]; 16 g ai/ha) of the same molecule?
The value was 0.

What about the “Plant response rating, Barnyardgrass” value ([3]; 31 g ai/ha) of the same molecule?
The value was 0.

What about the “Plant response rating, Barnyardgrass” value ([3]; 62 g ai/ha) of the same molecule?
The value was 0.

And the “Plant response rating, Barnyardgrass” value ([3]; 125 g ai/ha)?
Its value is 0.

And the “Plant response rating, Barnyardgrass” value ([3]; 250 g ai/ha)?
The value was 0.

What about the “Plant response rating, Dayflower, VA” value ([4]; 16 g ai/ha) of the same molecule?
Its value is 0.

And the “Plant response rating, Dayflower, VA” value ([4]; 31 g ai/ha)?
Its value is 0.

What about the “Plant response rating, Dayflower, VA” value ([4]; 62 g ai/ha) of the same molecule?
The value was 0.

What about the “Plant response rating, Dayflower, VA” value ([4]; 125 g ai/ha) of the same molecule?
Its value is 0.

And the “Plant response rating, Dayflower, VA” value ([4]; 250 g ai/ha)?
The value was 0.

What about the “Plant response rating, Panicum, Fall” value ([5]; 31 g ai/ha) of the same molecule?
The value was 0.

What about the “Plant response rating, Panicum, Fall” value ([5]; 62 g ai/ha) of the same molecule?
Its value is 0.

What about the “Plant response rating, Panicum, Fall” value ([5]; 125 g ai/ha) of the same molecule?
The value was 0.

And the “Plant response rating, Panicum, Fall” value ([5]; 250 g ai/ha)?
Its value is 0.

And the “Plant response rating, Pigweed, Palmer” value ([6]; 62 g ai/ha)?
Its value is 30.

What about the “Plant response rating, Pigweed, Palmer” value ([6]; 125 g ai/ha) of the same molecule?
The value was 35.

And the “Plant response rating, Pigweed, Palmer” value ([6]; 250 g ai/ha)?
The value was 35.

And the “Plant response rating, Sandbur” value ([7]; 31 g ai/ha)?
Its value is 0.

And the “Plant response rating, Sandbur” value ([7]; 62 g ai/ha)?
The value was 0.

And the “Plant response rating, Sandbur” value ([7]; 125 g ai/ha)?
Its value is 0.

And the “Plant response rating, Sandbur” value ([7]; 250 g ai/ha)?
Its value is 0.

What about the “Plant response rating, Waterhemp” value ([8]; 31 g ai/ha) of the same molecule?
Its value is 20.

And the “Plant response rating, Waterhemp” value ([8]; 62 g ai/ha)?
The value was 25.

What about the “Plant response rating, Waterhemp” value ([8]; 125 g ai/ha) of the same molecule?
Its value is 25.

And the “Plant response rating, Waterhemp” value ([8]; 250 g ai/ha)?
Its value is 30.

What about the “Plant response rating, Poinsettia, Wild” value ([9]; 31 g ai/ha) of the same molecule?
The value was 0.

And the “Plant response rating, Poinsettia, Wild” value ([9]; 62 g ai/ha)?
The value was 0.

And the “Plant response rating, Poinsettia, Wild” value ([9]; 125 g ai/ha)?
Its value is 0.

What about the “Plant response rating, Poinsettia, Wild” value ([9]; 250 g ai/ha) of the same molecule?
Its value is 0.
